Laboratory results published in patent US20090304818A1, “METHOD OF TREATMENT” (priority 2005, published 2009).

Tested on: sepsis in conscious sheep
Experiment: Ang II infusion in E. coli-induced sepsis in conscious sheep (FIG. 1)
Type: in vivo
Conditions: sepsis + Ang II infusion period, four conscious sheep
Experimental: Seven female Merino ewes weighing between 34.2 kg and 47.3 kg were procured for chronic instrumentation. The sheep were held and studied in metabolic cages, with free access to food and water. The animals underwent two separate operative procedures. For all procedures, anaesthesia was induced with sodium thiopentone (15 mg/kg) for endotracheal tube placement (cuff size 10). Maintenance anaesthesia was by means of oxygen/air/isoflurane (1 to 2%). Fractional inspired oxygen was altered to maintain PaO2 at approximately 100 mm Hg, and ventilation was controlled to maintain PaCO2 at approximately 40 mm Hg.
First, a left-sided thoracotomy was performed. The pericardium was opened, and a transit time flow probe (20 mm, Transonics Systems, Ithaca, N.Y.) was placed around the pulmonary artery to measure cardiac output. After two weeks recovery, a left-sided flank incision was made and a retroperitoneal dissection was performed to expose the left renal artery. […]
Analog signals of mean arterial pressure (MAP), central venous pressure (CVP), cardiac output (CO), and renal blood flow (RBF) were collected using a PC using a customized data acquisition system (Labview National Instruments). Data were recorded at 100 Hz for 10 s at every minute throughout the experimental protocol. Total peripheral conductance (TPC) (cardiac output/mean arterial pressure) and renal vascular conductance (RVC) (renal blood flow/mean arterial pressure) were calculated.
During the experimental periods MAP, CVP, CO, RBF and heart rate were measured continuously. Following a 12-hour baseline period, sheep were monitored for a 48 hour control period. After 7 days, sheep were monitored for a 2nd baseline period, followed by induction of sepsis by intravenous administration of a bolus of live E. coli (3.9×10^9 colony forming units in 15 mL saline), followed by a continuous infusion ([…] at 5 mL/h) for 48 h. […]
In both treatments, after the 12-hour baseline period, normal saline (1 mL/kg/h) was infused to avoid hypovolemia. Urinary output was measured and urine sampled every 90 minutes. […]

angiotensin II (DRVYIHPF; Angiotensin-2; UniProt P01019 25-32, looked up) [Ang II, vasoconstricting agent with preferential action on the efferent arteriole of the glomerulus; acts at the AT-1 receptor]
return these variables to normal: renal blood flow (increased in sepsis) | mean arterial pressure (reduced in sepsis) | urine output (reduced in sepsis)
